Patent publication US20090048160A1, “Antimicrobial activity of bovine bactericidal/permeability-increasing protein (BPI)-derived peptides against Gram-negative bacterial mastitis isolates” (priority 2007, published 2009)
Ends that are not written are not given here.

Columns and labels:
[1] = test system: Escherichia coli; assay: microbe, parasite or virus in culture; type: cell-based
Source text: (§1) Bacterial isolates of Escherichia coli, Klebsiella pneumonia, Serratia marcescens, Pseudomonas aeruginosa, Enterobacter cloacae, and Enterobacter aerogenes, which were obtained from clinical cases of bovine mastitis, were used to assess the bactericidal activity of peptides in a broth microdilution assay. Isolates were obtained from repositories at Cornell University (gift of Dr. Y. H. Schukken; Quality Milk Production Services Program, Cornell University, Ithaca N.Y.) and the USDA Beltsville Agricultural Research Center. […] A. J. Bramley, Institute for Animal Health, Compton Laboratory, Newbury, England), which was originally isolated from a clinical case of mastitis ([…]. Dairy Res. 43: 205-211) was also used to assess the bactericidal activity of the peptides in biological fluids. Reference strains of E. coli (ATCC 25922) and Staphylococcus aureus (ATCC 29213) were obtained from a commercial source (American Type Culture Collection (ATCC), Manassas, Va.). To obtain fresh inoculums for evaluation, a sterile loop of each bacterial glycerol stock was streaked on a blood agar plate. After an overnight incubation at 35° C., a single uniform colony was picked and sub-passaged by streaking on a new blood agar plate and incubating the plate overnight at 35° C. To evaluate the antimicrobial activity of the peptides against various clinical mastitis bacterial isolates, the minimum inhibitory concentration (MIC) and the minimum bactericidal concentration (MBC) of these peptides against the isolates were determined using a standardized broth microdilution assay. In addition to the mastitis isolates, E. coli (ATCC 25922) and S. aureus (ATCC 29213) reference strains were evaluated. […] The assays were performed in accordance with Clinical and Laboratory Standards Institute (CLSI) [formerly National Committee for Clinical Laboratory Standards (NCCLS)] guidelines (National Committee for Clinical Laboratory Standards. 1999. Methods for Determining Bacterial Activity of Antimicrobial Agents: Approved Guideline. Wayne, Pa.; National Committee for Clinical Laboratory Standards. 2002. Performance Standards for Antimicrobial Disk and Dilution Susceptibility Tests for Bacteria Isolated from Animals: Approved Standard. 2nd Edition, Wayne, Pa.). […] The bacterial suspension was then diluted 100-fold in cation-adjusted Mueller-Hinton broth to reach a final inoculum concentration of 10^6 CFU/ml. […] A negative control column was included in the plate that included 100 μl of broth alone. The plates were incubated for 18 h at 35° C. with ambient air circulation and without shaking. The wells were subsequently inspected for cloudiness and pellet formation using a magnifying glass plate reader. The lowest concentration at which no pellet or cloudiness was apparent in a given well was identified as the MIC. […] The plates were incubated overnight at 35° C. and colonies subsequently enumerated. The MBC values were determined as the lowest concentration at which ≧99.9% of inoculated bacteria were killed. All assays were performed in triplicate and the MIC and MBC range reported.

[2] = test system: Klebsiella pneumoniae; assay: microbe, parasite or virus in culture; type: cell-based
Source text: as §1

[3] = test system: bacterial LPS derived from E. coli 0111:B4; assay: LPS neutralization, Limulus amebocyte lysate (LAL) assay; type: biochemical; settings: 1 ng LPS; for inhibition of LPS activity: 30 min
Procedure: FIG. 1 depicts the mean (±S.E.) percent neutralization of bacterial LPS bioactivity as determined with the Limulus amebocyte lysate assay. Increasing concentrations of peptides or polymixin B were incubated with 1 ng of E. coli-derived LPS for 30 min. Following incubation, the amount of free LPS was determined by extrapolation from a standard curve and the percent of bound (neutralized) LPS was calculated.
The ability of the peptides to neutralize LPS was determined using a commercially available Limulus amebocyte lysate (LAL) assay (Cambrex BioScience Walkersville, Inc., Walkersville, Md.). As a positive control, polymyxin B (Sigma Chemical Co.) was evaluated in parallel with the peptides. Increasing concentrations of peptides or polymyxin B were incubated with 1 ng of highly purified bacterial LPS (Sigma Chemical Co.), derived from E. coli 0111:B4, in a 500 μl reaction volume of endotoxin-free water for 30 min at 37° C. while shaking at 100 rpm. Following the incubation, the amount of free LPS was determined in each sample according to the manufacturer's instructions. Briefly, 50 μl of the above mixture was placed into a 96-well microtiter plate and the reaction initiated by the addition of an equal volume of amoebocyte lysate. Following an incubation at 37° C. for 10 min, 100 μl of chromogenic substrate was added and the plate incubated for 5-10 min at 37° C. The reaction was stopped by the addition of 50 μl of glacial acetic acid and the absorbance measured at a wavelength of 405 nm on a microplate reader (Biotec Instruments, Inc., Winooski, Vt.). The amount of non-bound LPS was extrapolated from a standard curve and the percent inhibition calculated according to the following formula: […]
To determine whether the bBPI peptides were able to neutralize LPS, increasing concentrations of the peptides were incubated with LPS (1 ng) and the resulting mixture assayed with the LAL assay (FIG. 1). As a positive and negative control, respectively, polymyxin B and a non-BPI-derived peptide were also assayed. […] In contrast, bBPI142-169 and bBPI90-99,148-161 were able to neutralize ≧93% of LPS activity at peptide concentrations of 30 and 100 μg/ml, respectively.

“KWKARKNFIKGSSLGWLIQLFRKR [bBPI90-99,148-161]” was tested, and the “MIC and MBC values” [1] was at most 64 µg/mL, the “MIC and MBC values” [2] was at most 64 µg/mL and the “inhibition of LPS activity” value ([3]; 1 μg/ml) was “no inhibition”. The “inhibition of LPS activity” value ([3]; 30 μg/ml) was 74%.

In the case of “NSQIRPLPDKGLDLSIRDASIKIRGKWKARKNFIK [bBPI65-99]”, the MBC [1] is reported as over 256 µg/mL, the MIC [1] is reported as over 256 µg/mL and the MBC [2] is reported as over 256 µg/mL. The MIC [2] was over 256 µg/mL, the “inhibition of LPS activity” value ([3]; 1 μg/ml) was “approximately 20%” and the “maximal inhibition of LPS activity” value ([3]; within the dose-response range tested) was 50%.

For “VRIHISGSSLGWLIQLFRKRIESLLQKS [bBPI142-169]”, the “inhibition of LPS activity” value ([3]; 1 μg/ml) was “approximately 20%”.
